Entries after “also recorded” stand apart in the source; their conditions may differ.
Assays:
rat intestinal motility = experiment: Intestinal motility, Upper Gut Transit Test; format: in vivo; settings: for antagonism of the constipating effect of the CB1 agonist WIN 55,212-2 / effect on the intestinal transit rate / intestinal portion run by the marker relative to the length run after physiological solution with Tween 80: i.p.; for intestinal portion run by the marker relative to the length run after physiological solution with Tween 80: compound alone
Method: To further evaluate the activity in vivo of the compounds (I) object of the present invention, functional tests were carried out to evaluate the effect of said compounds on the rat intestinal motility. It was indeed shown the involvement of the cannabinoidergic CB1 receptors in the intestinal motility regulation in rat (R. G. Pertwee et al; Br. J. Pharmacol.; 1996, 118, 2199-2205). In particular, the CB1 receptor agonists slacken the gastrointestinal motility; antagonist compounds of the same receptors have instead a prokinetic effect on the gastrointestinal transit (G. Colombo et al.; Eur. J. Pharmacol.; 1998, 344, 67-69; M. A. Casu et al.; Eur. J. Pharmacol.; 2003, 459, 97-105).
The evaluation of the constipating or prokinetic effect of the compounds was carried out by the Upper Gut Transit Test method on the basis of the procedure defined and ratified by Y. Nagakura et al.; Eur. J. Pharmacol.; 1996, 311, 67-72. The method, which allows to measure the motility of the stomach and of the first intestine tract (small or little intestine), implies: • the administration of the compound to be tested by i.p. route; • the administration of carmine red (marker not directly absorbable from the stomach) by intragastric route through a metal probe, after 20 minutes from the administration of the compound to be tested; • the rat sacrifice by cervical dislocation after a pre-fixed time (30 minutes) starting from the administration time; • the intestine explant from pylorus to the ileo-cecal valve; • the determination of the intestinal part crossed by the marker; • the data processing to determine the percentage of crossed part with respect to the total length of the small intestine.
With respect to the control (physiological solution or carrier wherein the compounds to be tested were solubilized or dispersed), the administration of CB1 agonist compounds implies a reduction of the intestinal transit percentage; an opposite effect is noticed in case of antagonist compounds. The latter are therefore capable to cancel the constipating effect of CB1 agonist compounds.
Each test was repeated on ten animals; the results reported in the Examples are the average of the results obtained with ten animals.

CB1 receptors [1] = molecular target: T1, CB1 receptors (Rattus norvegicus, UniProt P20272); experiment: Radioreceptor binding, [3H]-CP-55,940 displacement, rat brain membranes; parameters: from tissue; host or cells: whole animal (rat), central CB1 receptors of the hypothalamus; settings: 1 nM [3H]-CP55,940
T1 sequence (P20272 whole entry): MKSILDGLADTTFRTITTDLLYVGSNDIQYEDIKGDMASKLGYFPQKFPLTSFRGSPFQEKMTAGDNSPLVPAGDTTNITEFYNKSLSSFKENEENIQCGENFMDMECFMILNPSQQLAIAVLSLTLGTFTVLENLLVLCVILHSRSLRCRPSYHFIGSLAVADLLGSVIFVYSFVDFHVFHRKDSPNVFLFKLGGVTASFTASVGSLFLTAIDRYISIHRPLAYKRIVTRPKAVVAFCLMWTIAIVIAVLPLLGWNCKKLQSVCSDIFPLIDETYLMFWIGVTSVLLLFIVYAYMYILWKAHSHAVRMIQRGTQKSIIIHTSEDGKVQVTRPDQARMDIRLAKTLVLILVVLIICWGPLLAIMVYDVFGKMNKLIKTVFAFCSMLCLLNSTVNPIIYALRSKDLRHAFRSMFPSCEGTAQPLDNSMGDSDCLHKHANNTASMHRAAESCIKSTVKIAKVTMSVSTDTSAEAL
Source text: The receptorial binding technique allows indeed to establish if and with what affinity and specificity a determined compound binds itself to a particular receptor. To evaluate the affinity of a determined compound towards a particular receptor, a particular preparation of the tissue wherein the receptors are present is used and the tested compound is made to compete with another compound, treated so as to make it radioactive and of which the affinity for the receptor is known. […] The reading of the radioactivity present in the receptor-compound complex allows furthermore to precisely calculate the compound amount bound to the receptor. By this method it is therefore possible to rapidely identify the affinity of a new compound towards a specific receptor and thus to make predictions on its pharmacological activity. By repeating the same experimental scheme it is possible to evaluate the affinity of the compound towards other kinds of receptors and thus establish the specificity degree.
Food and water were available ad libitum.
The animals were sacrificed by cervical dislocation, the brain in toto (cerebellum excluded) and the spleen were rapidely dissected and maintained in ice.
The tissue was homogenized in 15 volumes (weight/volume) of TME buffer (50 mM Tris, 1 mM EDTA e 3 mM MgCl2, pH 7.4) by an Ultra-Turrax and centrifuged for 10 minutes at 1086×g in a centrifuge cooled at 4° C. The resulting supernatant was centrifuged at 45,000×g for 30 min at 4° C. by using a Beckman SW41 rotor and the final pellet was resuspended in 50 volumes of TME.
The obtained membranes (50-80 μg of proteins) were incubated in the presence of 1 nM di [^3H]-CP55,940 for 1 h at 30° C. in a final volume of 0.5 ml of TME buffer containing 5 mg/ml of bovine serum albumin (BSA). The non specific binding was measured in the presence of CP55,940 at the 1 μM concentration. […]
The radioactivity present in the filters was measured by a scintillator spectrophotometer (Tricarb 2100, Packard, Meridien, USA). […]

CB1 receptors [2] = molecular target: T1, CB1 receptors; experiment: Hypothermia test in vivo, compound alone (rectal temperature); parameters: from tissue; host or cells: whole animal (rat), central CB1 receptors of the hypothalamus; settings: i.p., doses 0.1, 0.5, 1.0, 3.0, 6.0 mg/kg, versus physiological solution (38° C.)
Method: The test was carried out with the compound of the Example 3.1c. Aqueous samples were used wherein the compound of the Example 3.1c was dispersed in water with three drops of Tween 80. Following the above procedure, treatments were carried out with doses (mg compound/kg of body weight) respectively of 0.1; 0.5; 1.0; 3.0; 6.0.

Molecule	length run by the marker relative to physiological solution, WIN 55,212-2 preceded by the compound (rat intestinal motility; WIN 55,212-2 0.5 mg/kg preceded by compound 1.0 mg/kg)	antagonism of the constipating effect of the CB1 agonist WIN 55,212-2 (rat intestinal motility)	effect on the intestinal transit rate (rat intestinal motility)	intestinal portion run by the marker relative to the length run after physiological solution with Tween 80 (rat intestinal motility; 0.5 mg of compound/kg)	intestinal portion run by the marker relative to the length run after physiological solution with Tween 80 (rat intestinal motility; 1.0 mg of compound/kg)	Ki (CB1 receptors [1])	effect of the compound as such on body temperature (CB1 receptors [2])	length run by the marker relative to physiological solution, WIN 55,212-2 preceded by the compound (rat intestinal motility; WIN 55,212-2 0.5 mg/kg preceded by compound 0.5 mg/kg)
Cc1c(C(=O)NN2CCCCC2)nn(-c2ccc(Cl)cc2Cl)c1-c1ccc(Cl)s1 [Example 3.1b, N-piperidinyl-5-(5-Chloro-thiophen-2-yl)-1-(2′,4′-dichloro-phenyl)-4-methyl-1H-pyrazol-3-carboxamide]	the same length	capable to antagonize the effect of a CB1 agonist; also recorded: capable to antagonize the constipating effect of the CB1 agonist WIN 55,212-2	increase the intestinal transit rate	1.57 times	1.76 times	35 ± 2.5 nM	does not cause as such any effect on the body temperature	
N-pyrrolidinyl-5-(5-Chloro-thiophen-2-yl)-1-(2,4′-dichloro-phenyl)-4-methyl-1H-pyrazol-3-carboxamide [Example 3.1d]		capable to antagonize the effect of a CB1 agonist	increase the intestinal transit rate	1.61 times	1.74 times	63 ± 7.2 nM	does not cause as such any effect on the body temperature	the same length

Reference: patent publication US8227620B2, “Pharmaceutical compounds” (Neuroscienze Pharmaness S.C. A.R.L., priority 2004, dated 2012)
